Patent publication US11716944B1, “Method for improving one-time seedling rate of microspore embryoids of brassica campestris SSP. chinensis makino” (Anhui Agricultural University, priority 2021, dated 2023)

Columns and labels:
[1] = system: Brassica campestris ssp. Chinensis Makino; test: Effects of different concentrations of 6-BA sprayed onto flower buds on the embryogenesis rate; assay type: in vivo; details: for embryogenesis rate increased by: compared with no 6-BA
Experimental: In this example, a method for improving a one-time seedling rate of microspore embryoids of Brassica campestris ssp. Chinensis Makino included the steps of: • (1) pretreatment of flower bud • a concentration of 100 mg/L of 6-BA was sprayed onto a flower bud of a plant of Brassica campestris ssp. Chinensis Makino at a full-bloom stage after squaring; on the second day after the spraying of 6-BA, an inflorescence, which was specifically a main inflorescence or a healthy inflorescence of a primary branch of a plant without insect pests and cracked buds, was selected, placed in a self-sealing bag and sprayed with clean water, and then stored in a refrigerator at 4° C. for 1 day for later use; • (2) isolation of microspores • a flower bud with a petal length/anther length between 0.5-1 was selected, firstly sterilized with 70% alcohol for 30 s, then sterilized with 0.1% HgCl2 under shaking for 6 min, and then rinsed with sterilized water for 2 times, with each time for 5 min; then, the flower bud was crushed in a B5 medium with a glass rod to release microspores, and the microspores were filtered by a 300-mesh steel-wire mesh screen and a cell mesh screen successively; subsequently, a filtrate was collected into a centrifugal tube and centrifuged under the condition of 1,000 r/min for 3 min; and after the centrifuging, a pellet was resuspended with a B5 medium, and the resuspended solution was centrifuged again under the condition of 1,000 r/min for 3 min to obtain a pellet as the purified microspores desired for the objective; • (3) culture of microspores • the purified microspores were diluted with a NLN medium, and a cell density was adjusted to about 1.5 × 10^5 /mL^-1 (at this time, the medium was pale yellow); subsequently, the diluted purified microspores were subpackaged into culture dishes, and added with phytic acid PA at a concentration of 0.15%; and finally, the microspores were subjected to heat shock treatment at 33° C. for 24 h, then transferred to culture in the dark at 25° C., and placed onto a shaker for shaking culture after embryoids visible to naked eyes appeared; and • (4) germination and seedling of embryoids • the cultured embryoids in a cotyledon stage with a length of 2.8 mm were transferred onto a MS medium for differentiation culture, wherein culture conditions were 4° C., 14 h of illumination by blue-red compound light/day, and 14 days of culture; and then, the culture was continued under a condition of 25° C. and 14 h of illumination by blue-red compound light/day until seedling; wherein the ratio of blue light to red light in the blue-red compound light was 1:1. This example was used for verifying the effects of different concentrations of 6-BA on the embryogenesis rate of Brassica campestris ssp. Chinensis Makino: Method: in the pretreatment process of the flower buds, after squaring of Brassica campestris ssp. Chinensis Makino, at the full flowering stage, 6-BA solutions with concentrations of 0, 50, 100, 150 and 200 mg/L were prepared and sprayed onto the flower buds respectively, so as to study the effects of different concentrations of 6-BA on the embryogenesis rate of Brassica campestris ssp. Chinensis Makino (other steps were the same, and were conducted with reference to Example 3).

[2] = system: purified microspores of Brassica campestris ssp. Chinensis Makino; test: Effects of different concentrations of phytic acid PA added in microspore culture on the embryogenesis rate; assay type: cell-based
Experimental: In this example, a method for improving a one-time seedling rate of microspore embryoids of Brassica campestris ssp. Chinensis Makino included the steps of: • (1) pretreatment of flower bud • a concentration of 100 mg/L of 6-BA was sprayed onto a flower bud of a plant of Brassica campestris ssp. Chinensis Makino at a full-bloom stage after squaring; on the second day after the spraying of 6-BA, an inflorescence, which was specifically a main inflorescence or a healthy inflorescence of a primary branch of a plant without insect pests and cracked buds, was selected, placed in a self-sealing bag and sprayed with clean water, and then stored in a refrigerator at 4° C. for 1 day for later use; • (2) isolation of microspores • a flower bud with a petal length/anther length between 0.5-1 was selected, firstly sterilized with 70% alcohol for 30 s, then sterilized with 0.1% HgCl2 under shaking for 6 min, and then rinsed with sterilized water for 2 times, with each time for 5 min; then, the flower bud was crushed in a B5 medium with a glass rod to release microspores, and the microspores were filtered by a 300-mesh steel-wire mesh screen and a cell mesh screen successively; subsequently, a filtrate was collected into a centrifugal tube and centrifuged under the condition of 1,000 r/min for 3 min; and after the centrifuging, a pellet was resuspended with a B5 medium, and the resuspended solution was centrifuged again under the condition of 1,000 r/min for 3 min to obtain a pellet as the purified microspores desired for the objective; • (3) culture of microspores • the purified microspores were diluted with a NLN medium, and a cell density was adjusted to about 1.5 × 10^5 /mL^-1 (at this time, the medium was pale yellow); subsequently, the diluted purified microspores were subpackaged into culture dishes, and added with phytic acid PA at a concentration of 0.15%; and finally, the microspores were subjected to heat shock treatment at 33° C. for 24 h, then transferred to culture in the dark at 25° C., and placed onto a shaker for shaking culture after embryoids visible to naked eyes appeared; and • (4) germination and seedling of embryoids • the cultured embryoids in a cotyledon stage with a length of 2.8 mm were transferred onto a MS medium for differentiation culture, wherein culture conditions were 4° C., 14 h of illumination by blue-red compound light/day, and 14 days of culture; and then, the culture was continued under a condition of 25° C. and 14 h of illumination by blue-red compound light/day until seedling; wherein the ratio of blue light to red light in the blue-red compound light was 1:1. This example was used for verifying the effects of different concentrations of phytic acid PA on the embryogenesis rate of Brassica campestris ssp. Chinensis Makino: Method: in the process of microspore culture, the purified microspores subjected to density dilution were subpackaged into culture dishes, and added with phytic acid PA at concentrations of 0, 0.01%, 0.1%, 0.15%, 0.5% and 1% respectively, so as to study the effects of different concentrations of phytic acid PA on the embryogenesis rate of Brassica campestris ssp. Chinensis Makino (other steps were the same, and conducted with reference to Example 3).

Question: Which Average embryogenesis rate ([1]; 6-BA 50 mg/L sprayed onto flower buds) does the source give for `c1ccc(CNc2ncnc3[nH]cnc23)cc1` [6-BA] here?
Answer: 0.92 embryo/bud

Question: What about the “embryogenesis rate increased by” value ([1]; 6-BA 50 mg/L) of the same compound?
Answer: 38.46%

Question: What about the Average embryogenesis rate ([1]; 6-BA 100 mg/L sprayed onto flower buds) of the same compound?
Answer: 1.56 embryo/bud

Question: What about the “embryogenesis rate increased by” value ([1]; 6-BA 100 mg/L) of the same compound?
Answer: 100%

Question: And the Average embryogenesis rate ([1]; 6-BA 150 mg/L sprayed onto flower buds)?
Answer: 1.08 embryo/bud

Question: What about the “embryogenesis rate increased by” value ([1]; 6-BA 150 mg/L) of the same compound?
Answer: 17.95%

Question: What about the Average embryogenesis rate ([1]; 6-BA 200 mg/L sprayed onto flower buds) of the same compound?
Answer: 0.74 embryo/bud

Question: What about the “embryogenesis rate decreased by” value ([1]; 6-BA 200 mg/L, compared with that without application of the 6-BA solution) of the same compound?
Answer: 5.13%

Question: What does the source list for `O=P(O)(O)O[C@H]1[C@H](OP(=O)(O)O)[C@@H](OP(=O)(O)O)[C@H](OP(=O)(O)O)[C@@H](OP(=O)(O)O)[C@H]1OP(=O)(O)O` [PA, Phytic acid]?
Answer: Average embryogenesis rate ([2]; PA 0.01% in medium): 0.774 embryo/bud; embryogenesis rate increased by ([2]; PA 0.01%, compared with the medium without addition of PA): 21%; Average embryogenesis rate ([2]; PA 0.1% in medium): 1.495 embryo/bud; embryogenesis rate increased by ([2]; PA 0.1%, compared with the medium without addition of PA): 134%; Average embryogenesis rate ([2]; PA 0.15% in medium): 1.137 embryo/bud; embryogenesis rate increased by ([2]; PA 0.15%, compared with the medium without addition of PA): 78%; Average embryogenesis rate ([2]; PA 0.5% in medium): 0.789 embryo/bud; embryogenesis rate increased by ([2]; PA 0.5%, compared with the medium without addition of PA): 23%; Average embryogenesis rate ([2]; PA 1% in medium): 0.487 embryo/bud; embryogenesis rate decreased by ([2]; PA 1%, compared with the medium without addition of PA): 24%
